Measurements taken from PubChem BioAssay (NCI).
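Tested at 5 concentrations; 48 h exposure; 96-well plates; endpoints linearly interpolated, else capped at highest concentration. TGI marks complete inhibition of growth.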

What was measured:
Assay in all cases: NCI-60 cell line screen, 48 h
[1] = system: 786-0 renal
[2] = system: A549 NSCLC
[3] = system: ACHN renal
[4] = system: CCRF-CEM leukemia
[5] = system: COLO 205 colon
[6] = system: DLD-1 colon
[7] = system: DMS 114 small cell lung
[8] = system: DMS 273 small cell lung
[9] = system: EKVX NSCLC
[10] = system: HCC-2998 colon
[11] = system: HCT-116 colon
[12] = system: HCT-15 colon
[13] = system: HL-60(TB) leukemia
[14] = system: HOP-18 NSCLC
[15] = system: HOP-62 NSCLC
[16] = system: HOP-92 NSCLC
[17] = system: HT29 colon
[18] = system: IGROV1 ovarian
[19] = system: K-562 leukemia
[20] = system: KM20L2 colon
[21] = system: LOX IMVI melanoma
[22] = system: LXFL 529 NSCLC
[23] = system: M14 melanoma
[24] = system: M19-MEL melanoma
[25] = system: MOLT-4 leukemia
[26] = system: NCI-H23 lung
[27] = system: NCI-H460 lung
[28] = system: NCI-H522 lung
[29] = system: OVCAR-3 ovarian
[30] = system: OVCAR-4 ovarian
[31] = system: OVCAR-8 ovarian
[32] = system: RPMI-8226 leukemia
[33] = system: RXF 393 renal
[34] = system: SF-268 CNS
[35] = system: SF-295 CNS
[36] = system: SK-MEL-28 melanoma
[37] = system: SK-MEL-5 melanoma
[38] = system: SK-OV-3 ovarian
[39] = system: SN12C renal
[40] = system: SNB-19 CNS
[41] = system: SR leukemia
[42] = system: SW-620 colon
[43] = system: TK-10 renal
[44] = system: U251 CNS
[45] = system: UACC-257 melanoma
[46] = system: UACC-62 melanoma
[47] = system: UO-31 renal
[48] = system: XF 498 CNS
[49] = system: A498 renal
[50] = system: CAKI-1 renal
[51] = system: KM12 colon
[52] = system: MALME-3M melanoma
[53] = system: NCI-H226 lung
[54] = system: OVCAR-5 ovarian
[55] = system: SF-539 CNS
[56] = system: SK-MEL-2 melanoma
[57] = system: SNB-75 CNS
[58] = system: SNB-78 CNS

## NC(=O)NN/C=C(/C=Nc1ccccc1)[N+](=O)[O-]
[1]
  TGI: > 100 µM
[2]
  TGI: > 100 µM
[3]
  TGI: > 100 µM
[4]
  TGI: > 100 µM
[5]
  TGI: > 100 µM
[6]
  TGI: > 100 µM
[7]
  TGI: > 100 µM
[8]
  TGI: > 100 µM
[9]
  TGI: > 100 µM
[10]
  TGI: > 100 µM
[11]
  TGI: > 100 µM
[12]
  TGI: > 100 µM
[13]
  TGI: > 100 µM
[14]
  TGI: > 100 µM
[15]
  TGI: > 100 µM
[16]
  TGI: > 100 µM
[17]
  TGI: > 100 µM
[18]
  TGI: > 100 µM
[19]
  TGI: > 100 µM
[20]
  TGI: > 100 µM
[21]
  TGI: > 100 µM
[22]
  TGI: > 100 µM
[23]
  TGI: > 100 µM
[24]
  TGI: > 100 µM
[25]
  TGI: > 100 µM
[26]
  TGI: > 100 µM
[27]
  TGI: > 100 µM
[28]
  TGI: > 100 µM
[29]
  TGI: > 100 µM
[30]
  TGI: > 100 µM
[31]
  TGI: > 100 µM
[32]
  TGI: > 100 µM
[33]
  TGI: > 100 µM
[34]
  TGI: > 100 µM
[35]
  TGI: > 100 µM
[36]
  TGI: > 100 µM
[37]
  TGI: > 100 µM
[38]
  TGI: > 100 µM
[39]
  TGI: > 100 µM
[40]
  TGI: > 100 µM
[41]
  TGI: > 100 µM
[42]
  TGI: > 100 µM
[43]
  TGI: > 100 µM
[44]
  TGI: > 100 µM
[45]
  TGI: > 100 µM
[46]
  TGI: > 100 µM
[47]
  TGI: > 100 µM
[48]
  TGI: > 100 µM

## CCOC(=O)C1=C(OC(OCC)C(C)[Se]c2ccccc2)CCC1 (centres undefined)
[1]
  TGI: 25.1 µM
[49]
  TGI: > 100 µM
[2]
  TGI: > 100 µM
[3]
  TGI: 68.4 µM
[50]
  TGI: > 100 µM
[4]
  TGI: 49.7 µM
[5]
  TGI: 82.2 µM
[6]
  TGI: 40.5 µM
[8]
  TGI: 22.4 µM
[9]
  TGI: 59.1 µM
[10]
  TGI: > 100 µM
[11]
  TGI: 38.8 µM
[12]
  TGI: 33.6 µM
[13]
  TGI: 21.2 µM
[14]
  TGI: 51.7 µM
[15]
  TGI: > 100 µM
[16]
  TGI: 48.3 µM
[17]
  TGI: 77.6 µM
[18]
  TGI: 81 µM
[19]
  TGI: > 100 µM
[51]
  TGI: > 100 µM
[20]
  TGI: 74.2 µM
[21]
  TGI: 20.4 µM
[22]
  TGI: 37.4 µM
[23]
  TGI: 63.2 µM
[24]
  TGI: 38.9 µM
[52]
  TGI: 89.5 µM
[25]
  TGI: 58.5 µM
[53]
  TGI: 50.4 µM
[26]
  TGI: 27.9 µM
[27]
  TGI: 60 µM
[28]
  TGI: 26.9 µM
[29]
  TGI: 32 µM
[30]
  TGI: 37.5 µM
[54]
  TGI: > 100 µM
[31]
  TGI: 30.1 µM
[32]
  TGI: 36.5 µM
[33]
  TGI: 30.2 µM
[34]
  TGI: 32.3 µM
[35]
  TGI: 79.3 µM
[55]
  TGI: 39.9 µM
[56]
  TGI: > 100 µM
[36]
  TGI: 62.7 µM
[37]
  TGI: 39.9 µM
[38]
  TGI: > 100 µM
[39]
  TGI: 36.5 µM
[40]
  TGI: > 100 µM
[57]
  TGI: 73.6 µM
[58]
  TGI: > 100 µM
[41]
  TGI: 28 µM
[43]
  TGI: > 100 µM
[44]
  TGI: 20.1 µM
[45]
  TGI: > 100 µM
[46]
  TGI: 43.6 µM
[47]
  TGI: 47.1 µM
[48]
  TGI: 34.4 µM
